Results taken from patent US7998977B2, “Inhibitors of AKT (protein kinase B)” (Eli Lilly and Company, priority 2006, dated 2011).
Counter-ions that a name gives are not always drawn.

How the values were obtained:
[1] = Effect of initial solution pH on rate of precipitation; assay type: physicochemical; details: room temperature
Source text: A pharmaceutical composition of 4-[5-(2-amino-ethanesulfonyl)-isoquinolin-7-yl]-phenol monohydrochloride hemihydrate comprises a non-reducing sugar and a pH adjusting agent. […] […]. Also, the rate at which precipitation takes place is pH dependent.

[2] = biological target: T1, Active human recombinant Akt1 (full-length) (Homo sapiens, UniProt P31749); assay: Akt1 Phosphorylation Assay (competitive fluorescence polarization immunoassay, FPIA); assay type: biochemical; details: 20 μM ATP, 60 min at room temperature, n=3; read-out: IC50, inhibition of Akt1 phosphorylation
T1 construct: Active human recombinant Akt1 (full-length) purified from Sf9 insect cells; purchased Upstate Biotechnology, Inc; host or cells: Sf9 insect cells
Source text: Akt1 Phosphorylation Assay
The assay measures the phosphorylation of PKC alpha pseudo-substrate peptide by a Competitive Fluorescence Polarization Immunoassay (FPIA). The assay indirectly measures the concentration of phospho-peptide product formed in a reaction by measuring the change in the intensity of polarized light emitted from a fluorescently-labeled tracer peptide when displaced from a phospho-specific antibody by the phospho-peptide product. Calibration with a standard curve yields quantitative results.
Active human recombinant Akt1 (full-length) purified from Sf9 insect cells is obtained from Upstate Biotechnology, Inc. Peptide Substrate (M.W.1561) is purchased. […]
After 60 min at room temperature the reaction is terminated by adding 25 μL of Quench/Detection Mix containing 260 mM EDTA, 3.4 nM Fluorescein Tracer, and 7.5 nM Anti-Phosphoserine Antibody. The plates are incubated in darkness at room temperature for more than 3 hr, and then fluorescence polarization (at λex=485 nm, […]) is read using a Tecan Ultra plate reader. The concentration of phosphorylated product per well is calculated from millipolarization (mP) units using a prepared peptide competitor dilution series as a standard curve.

[3] = system: Phospho-GSK3b (pGSK3b); assay: In vivo target inhibition by a single IV injection, U87MG tumors in nude mice; details: Mus musculus, U-87 MG, U87MG glioblastoma tumors, single IV injection of 25 mg/kg, at 1 hour, read-out: inhibition of pGSK3b in tumor
Protocol: In Vivo Target Inhibition Studies
In Vivo Target Inhibition by a Single IV Injection:
Exponentially growing U87MG cells derived from a human glioblastoma are implanted subcutaneously in the rear flank of nude mice. When the tumors reach the size of 200-250 mm^3, compounds are administered to the animals by a single IV injection in a dose-response study or in a time-course study. At the end of each treatment, animals are asphyxiated with CO2. Tumors are harvested by surgical excision, quickly frozen in liquid nitrogen and stored at −80° C. until analysis. Sera are prepared from blood harvested from the heart by cardiac puncture and stored at −80° C. until analysis.
The Akt inhibitor is extracted from serum with acetonitrite/methanol and analyzed alongside an internal standard by LC/MS/MS. Tumors are homogenized in 2 volumes of a lysis buffer containing 25 mM Tris (pH 7.5), Roche complete protease inhibitors, and 1 mM vanadate with Powergen 125 homogenizer, then sequentially passed thorough an 18 gauge needle and a 23 gauge needle. Soluble cytoplasmic extracts are collected from the supernatant fraction after the lysates are centrifuged for 30 minutes at 20,000×g. Protein concentrations in the cytoplasmic extracts are determined with a BCA kit. Phospho-GSK3b (pGSK3b) in the soluble extracts is analyzed with the ELISA Kit.

[4] = system: U87MG cells derived from a human glioblastoma; assay: In vivo tumor growth inhibition, U87MG glioblastoma xenograft; set-up: species or system nude mice; details: continuous infusion of 27 mg/kg/day for 4 days, measured at the end of the assay
Protocol: (§1) In Vivo Tumor Growth Inhibition Studies
(§2) Exponentially growing U87MG cells derived from a human glioblastoma or H1155 cells derived from human non-small cell lung cancer are implanted subcutaneously in the rear flank of nude mice. Three days after tumor cell implants, microsurgery is performed to cannulate catheter for continuous infusion via jugular vein. Example 1, formulated in D5W (5% dextrose in water) at various concentrations, is then infused into mice next day at 40 μL/hr for 4 days. Tumors are measured twice weekly until the study is terminated, usually at 24 days after the initial implants. Tumor growth inhibition is calculated by dividing the average tumor volume of the treated group by that of the vehicle-treated group.

[5] = system: H1155 cells derived from human non-small cell lung cancer; assay: In vivo tumor growth inhibition, H1155 non-small cell lung cancer xenograft; set-up: species or system nude mice; details: continuous infusion of 24 mg/kg/day for 4 days, measured at the end of the assay
Protocol: as §1, §2

[6] = system: Phospho-GSK3b (pGSK3b), a target of Akt in cells; assay: Cell-based ELISA (cELISA) for detection of phospho-GSK3b in U87MG cells; details: Homo sapiens, U-87 MG, 2 hr treatment, n=8, read-out: IC50, inhibition of pGSK3b
Protocol: Cell-Based ELISA (cELISA) for the Detection of Phospho-GSK3b (pGSK3b)
Exponentially grown U87MG cells derived from a human glioblastoma are seeded into 96-well plates and incubated overnight at 37° C. with 5% CO2. Ten concentrations of the compound of Example 1 are prepared from a 4 mM stock (in 100% DMSO) by 1:2 serial dilutions into the culture media. Equal volume of each of the serial dilutions is added directly to the cells. Treatment is stopped 2 hr later. At the end of the treatment, the culture media is removed, and the cells are washed once with ice-cold phosphate-buffered saline (PBS). The cells are fixed in PREFER according to vendor's procedure, followed by rinses in PBS/0.1% SDS and PBS/0.1% Triton X-100®, then overnight incubation in SEA Block Blocking buffer. The blocking step is followed by an overnight incubation of the cells with a rabbit antibody against pGSK3b/Ser9, followed by a goat anti-rabbit IgG. The pGSK3b is detected by SuperSignal ELISA Femto following the vendor's procedure.

T1 sequence (P31749 whole entry): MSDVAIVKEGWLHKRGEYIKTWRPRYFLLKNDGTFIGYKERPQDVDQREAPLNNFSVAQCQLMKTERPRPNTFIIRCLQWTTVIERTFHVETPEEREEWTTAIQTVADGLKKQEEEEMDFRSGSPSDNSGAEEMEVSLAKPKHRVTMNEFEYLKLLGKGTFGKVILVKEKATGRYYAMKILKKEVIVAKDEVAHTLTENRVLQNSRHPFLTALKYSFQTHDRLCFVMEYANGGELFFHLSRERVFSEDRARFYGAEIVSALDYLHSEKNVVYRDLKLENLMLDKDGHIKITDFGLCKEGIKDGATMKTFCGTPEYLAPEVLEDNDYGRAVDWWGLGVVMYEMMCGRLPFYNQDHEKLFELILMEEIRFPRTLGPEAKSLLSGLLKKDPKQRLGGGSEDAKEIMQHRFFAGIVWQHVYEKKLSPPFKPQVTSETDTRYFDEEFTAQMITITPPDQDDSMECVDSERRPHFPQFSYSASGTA

Compound	Precipitation (ppt) ([1]; 0.001 N HCl/3% mannitol, initial pH 4.20, approx. 15 mg/mL)	Precipitation (ppt) ([1]; 0.0025 N HCl/3% mannitol, initial pH 3.91, approx. 15 mg/mL)	Precipitation (ppt) ([1]; 0.005 N HCl/3% mannitol, initial pH 3.58, approx. 15 mg/mL)	Precipitation (ppt) ([1]; 0.01 N HCl/3% mannitol, initial pH 3.19, approx. 15 mg/mL)	Precipitation (ppt) ([1]; 0.05 N HCl/3% mannitol, initial pH 1.68, approx. 15 mg/mL)	IC50 [2]	inhibition at 25 mg/kg [3]	tumor growth inhibition [4]	tumor growth inhibition [5]	IC50 [6]
Cl.Cl.NCCS(=O)(=O)c1cc(-c2ccc(O)cc2)cc2cnccc12.NCCS(=O)(=O)c1cc(-c2ccc(O)cc2)cc2cnccc12.O [4-[5-(2-Amino-ethanesulfonyl)-isoquinolin-7-yl]-phenol Monohydrochloride Hemihydrate]	ppt after 24 hr	ppt after 36 hr	ppt after 48 hr	no ppt up to 96 hours	no ppt up to 96 hours					
NCCS(=O)(=O)c1cc(-c2ccc(O)cc2)cc2cnccc12 [Example 1, 4-[5-(2-Amino-ethanesulfonyl)-isoquinolin-7-yl]-phenol di-hydrochloride Salt]						0.045 µM	76%	50%	63%	2.04 µM
